The record followed here is patent US20260092061A1, “COMPOUNDS FOR TARGETED PROTEIN DEGRADATION” (Amphista Therapeutics Limited, priority 2022, published 2026).

Molecules are shown by their SMILES. Where only a bound is given, the exact number is not on record here.

Broadly, the DC50 is the concentration at which degradation of the target reaches its halfway point. A word on the Dmax: it is the greatest extent of degradation seen.

This assay concerns the target T1, BRD9 (Homo sapiens, UniProt Q9H8M2).
T1 sequence (Q9H8M2 1-597): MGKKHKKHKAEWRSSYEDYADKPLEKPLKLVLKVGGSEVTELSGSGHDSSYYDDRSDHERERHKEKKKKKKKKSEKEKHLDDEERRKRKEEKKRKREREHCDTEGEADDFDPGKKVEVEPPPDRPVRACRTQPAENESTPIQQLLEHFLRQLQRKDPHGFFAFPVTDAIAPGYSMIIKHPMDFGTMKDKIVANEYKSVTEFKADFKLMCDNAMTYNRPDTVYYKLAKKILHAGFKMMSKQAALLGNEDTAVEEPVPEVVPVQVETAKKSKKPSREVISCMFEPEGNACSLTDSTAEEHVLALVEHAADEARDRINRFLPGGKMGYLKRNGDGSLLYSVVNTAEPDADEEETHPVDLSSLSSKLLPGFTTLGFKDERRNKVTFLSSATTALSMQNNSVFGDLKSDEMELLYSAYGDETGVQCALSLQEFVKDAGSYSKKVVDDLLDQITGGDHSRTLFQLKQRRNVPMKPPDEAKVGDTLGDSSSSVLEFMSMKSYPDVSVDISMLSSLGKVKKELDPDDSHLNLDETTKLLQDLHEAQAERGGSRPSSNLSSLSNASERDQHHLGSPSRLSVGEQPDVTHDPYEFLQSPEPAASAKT
Put plainly: Degradation of BRD9 (IF), immunofluorescence in MV4-11 cells, 24 hours (Assay Protocol 2). In kind it is cell-based. More on the design: A suspension of MV4-11 cells (ATCC CRL-9591) was prepared; host or cells: MV4-11. The conditions noted are these: BRD9 degradation; for DC50: Assay protocol 2, read-out: DC50; for Dmax: MV4-11, Assay protocol 2, read-out: Dmax. The method in brief:
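% BRD9 remaining, scaled between DMSO (high) and 100 nM CFT-8634 (low) control wells, derives from mean Alexa 647 contrast in central nuclei by high-content imaging. MV4-11 cells had 24 h compound exposure at 37° C. before PFA fixation, Triton permeabilisation and anti-BRD9 E4Q3F immunostaining.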

For `COc1cc(-c2cn(C)c(=O)c(C)c2C)cc(OC)c1CN1CC2CCC1CN2Cc1cccc2c1CCN(C(=O)/C(C#N)=C/C(C)(C)C)C2C` (mixture of isomers) [Compound B101, (E/Z)-2-(5-((5-(2,6-dimethoxy-4-(1,4,5-trimethyl-6-oxo-1,6-dihydropyridin-3-yl)benzyl)-2,5-diazabicyclo[2.2.2]octan-2-yl)methyl)-1-methyl-1,2,3,4-tetrahydroisoquinoline-2-carbonyl)-4,4-dimethylpent-2-enenitrile], the DC50 fell in the range of 1.25 to 10 nM and the greatest degradation seen (Dmax) is 40 to 70%.

For the molecule `COc1cc(-c2cn(C)c(=O)c(C)c2C)cc(OC)c1CN1CCN(Cc2cccc3c2CCN(C(=O)/C(C#N)=C/C(C)(C)C)C3C)[C@@H](C)C1` (mixture of isomers) [Compound B102], the DC50 is 25 to 1000 nM and the maximal degradation (Dmax) is more than 75%.

As to `COc1cc(-c2cn(C)c(=O)c(C)c2C)cc(OC)c1CN1CCN(Cc2cccc3c2CCN(C(=O)/C(C#N)=C/C(C)(C)C)C3C)CC12CC2` (mixture of isomers) [Compound B103, (E/Z)-2-(5-((4-(2,6-dimethoxy-4-(1,4,5-trimethyl-6-oxo-1,6-dihydropyridin-3-yl)benzyl)-4,7-diazaspiro[2.5]octan-7-yl)methyl)-1-methyl-1,2,3,4-tetrahydroisoquinoline-2-carbonyl)-4,4-dimethylpent-2-enenitrile], the DC50 was 1.25 to 10 nM and the Dmax was more than 75%.

Turning to `COc1cc(-c2cn(C)c(=O)c3[nH]ncc23)cc(OC)c1CN1CCN(Cc2cccc3c2CCN(C(=O)/C(C#N)=C/C(C)(C)C)C3C)C2(CC2)C1` (mixture of isomers) [Compound B104, (E/Z)-2-(5-((7-(2,6-dimethoxy-4-(6-methyl-7-oxo-6,7-dihydro-1H-pyrazolo[3,4-c]pyridin-4-yl)benzyl)-4,7-diazaspiro[2.5]octan-4-yl)methyl)-1-methyl-1,2,3,4-tetrahydroisoquinoline-2-carbonyl)-4,4-dimethylpent-2-enenitrile], the DC50 was less than 1.25 nM and the greatest degradation seen (Dmax) was more than 75%.

On to `COc1cc(-c2cn(C)c(=O)c(C)c2C)cc(OC)c1CN1CCN(c2cccc(C3CCCN3C(=O)/C(C#N)=C/C(C)C)c2)CC1` (mixture of isomers) [Compound B106, (E/Z)-2-(2-(3-(4-(2,6-dimethoxy-4-(1,4,5-trimethyl-6-oxo-1,6-dihydropyridin-3-yl)benzyl)piperazin-1-yl)phenyl)pyrrolidine-1-carbonyl)-4-methylpent-2-enenitrile], for which the 50% degradation concentration (DC50) lay within 1.25 to 10 nM and the Dmax was more than 75%.

For `COc1cc(-c2cn(C)c(=O)c3ccsc23)cc(OC)c1CN1CCN(Cc2cccc3c2CCN(C(=O)/C(C#N)=C/C(C)(C)C)C3C)C2(CC2)C1` (mixture of isomers) [Compound B107, (E/Z)-2-(5-((7-(2,6-dimethoxy-4-(5-methyl-4-oxo-4,5-dihydrothieno[3,2-c]pyridin-7-yl)benzyl)-4,7-diazaspiro[2.5]octan-4-yl)methyl)-1-methyl-1,2,3,4-tetrahydroisoquinoline-2-carbonyl)-4,4-dimethylpent-2-enenitrile], the DC50 was less than 1.25 nM and the maximal degradation (Dmax) is more than 75%.

Consider `COc1cc(-c2cn(C)c(=O)c3ccsc23)cc(OC)c1CN1CCN(Cc2cccc3c2CCN(C(=O)/C(C#N)=C/c2cccc(Br)n2)C3C)C2(CC2)C1` (mixture of isomers) [Compound B108, (E/Z)-3-(6-bromopyridin-2-yl)-2-(5-((7-(2,6-dimethoxy-4-(5-methyl-4-oxo-4,5-dihydrothieno[3,2-c]pyridin-7-yl)benzyl)-4,7-diazaspiro[2.5]octan-4-yl)methyl)-1-methyl-1,2,3,4-tetrahydroisoquinoline-2-carbonyl)acrylonitrile], for which the DC50 is less than 1.25 nM and the maximal degradation (Dmax) was more than 75%.

Consider `COc1cc(-c2cn(C)c(=O)c(C)c2C)cc(OC)c1CN1CCN(Cc2cccc3c2CCN(C(=O)/C(C#N)=C/c2cccc(Br)n2)C3C)C(C)(C)C1` (mixture of isomers) [Compound B109, (E/Z)-3-(6-bromopyridin-2-yl)-2-(5-((4-(2,6-dimethoxy-4-(1,4,5-trimethyl-6-oxo-1,6-dihydropyridin-3-yl)benzyl)-2,2-dimethylpiperazin-1-yl)methyl)-1-methyl-1,2,3,4-tetrahydroisoquinoline-2-carbonyl)acrylonitrile], for which the DC50 was 1.25 to 10 nM and the Dmax is more than 75%.

For `COc1cc(-c2cn(C)c(=O)c(C)c2C)cc(OC)c1CN1C[C@H](C)N(Cc2cccc3c2CCN(C(=O)/C(C#N)=C/c2cccc(Br)n2)C3C)[C@@H](C)C1` (mixture of isomers) [Compound B110, (E/Z)-3-(6-bromopyridin-2-yl)-2-(5-(((2S,6S)-4-(2,6-dimethoxy-4-(1,4,5-trimethyl-6-oxo-1,6-dihydropyridin-3-yl)benzyl)-2,6-dimethylpiperazin-1-yl)methyl)-1-methyl-1,2,3,4-tetrahydroisoquinoline-2-carbonyl)acrylonitrile], the 50% degradation concentration (DC50) is 25 to 1000 nM and the greatest degradation seen (Dmax) is 40 to 70%.

Consider `COc1cc(-c2cn(C)c(=O)c(C)c2C)cc(OC)c1CN1C[C@@H](C)N(Cc2cccc3c2CCN(C(=O)/C(C#N)=C/C(C)(C)C)C3C)C[C@@H]1C` (mixture of isomers) [Compound B111, (E/Z)-2-(5-(((2R,5S)-4-(2,6-dimethoxy-4-(1,4,5-trimethyl-6-oxo-1,6-dihydropyridin-3-yl)benzyl)-2,5-dimethylpiperazin-1-yl)methyl)-1-methyl-1,2,3,4-tetrahydroisoquinoline-2-carbonyl)-4,4-dimethylpent-2-enenitrile], for which the DC50 lay within 10 to 25 nM and the Dmax was more than 75%.

For the molecule `COc1cc(-c2cn(C)c(=O)c(C)c2C)cc(OC)c1CN1CCN(Cc2cccc3c2CCN(C(=O)/C(C#N)=C/C(C)(C)C)C3C)C(=O)C1(C)C` (mixture of isomers) [Compound B112, (E/Z)-2-(5-((4-(2,6-dimethoxy-4-(1,4,5-trimethyl-6-oxo-1,6-dihydropyridin-3-yl)benzyl)-3,3-dimethyl-2-oxopiperazin-1-yl)methyl)-1-methyl-1,2,3,4-tetrahydroisoquinoline-2-carbonyl)-4,4-dimethylpent-2-enenitrile], the 50% degradation concentration (DC50) fell in the range of 10 to 25 nM and the Dmax was more than 75%.

Consider `CC[C@H]1CN(Cc2c(OC)cc(-c3cn(C)c(=O)c(C)c3C)cc2OC)CCN1Cc1cccc2c1CCN(C(=O)/C(C#N)=C/C(C)(C)C)C2C` (mixture of isomers) [Compound B113, (E/Z)-2-(5-(((S)-4-(2,6-dimethoxy-4-(1,4,5-trimethyl-6-oxo-1,6-dihydropyridin-3-yl)benzyl)-2-ethylpiperazin-1-yl)methyl)-1-methyl-1,2,3,4-tetrahydroisoquinoline-2-carbonyl)-4,4-dimethylpent-2-enenitrile], for which the DC50 was 1.25 to 10 nM and the greatest degradation seen (Dmax) is more than 75%.

Turning to `COc1cc(-c2cn(C)c(=O)c(C)c2C)cc(OC)c1CN1[C@H](C)CN(Cc2cccc3c2CCN(C(=O)/C(C#N)=C/C(C)(C)C)C3C)C[C@@H]1C` (mixture of isomers) [Compound B114, (E/Z)-2-(5-(((3S,5R)-4-(2,6-dimethoxy-4-(1,4,5-trimethyl-6-oxo-1,6-dihydropyridin-3-yl)benzyl)-3,5-dimethylpiperazin-1-yl)methyl)-1-methyl-1,2,3,4-tetrahydroisoquinoline-2-carbonyl)-4,4-dimethylpent-2-enenitrile], the 50% degradation concentration (DC50) was 1.25 to 10 nM and the greatest degradation seen (Dmax) is more than 75%.

Consider `COc1cc(-c2cn(C)c(=O)c(C)c2C)cc(OC)c1CN1C[C@@H](C)N(Cc2cccc3c2CCN(C(=O)/C(C#N)=C/C(C)(C)C)C3C)C[C@H]1C` (mixture of isomers) [Compound B115, (E/Z)-2-(5-(((2R,5R)-4-(2,6-dimethoxy-4-(1,4,5-trimethyl-6-oxo-1,6-dihydropyridin-3-yl)benzyl)-2,5-dimethylpiperazin-1-yl)methyl)-1-methyl-1,2,3,4-tetrahydroisoquinoline-2-carbonyl)-4,4-dimethylpent-2-enenitrile], for which the DC50 was in the range of 1.25 to 10 nM and the maximal degradation (Dmax) was more than 75%.

With `CCC(C)(C)/C=C(\C#N)C(=O)N1CCc2c(CN3CCN(Cc4c(OC)cc(-c5cn(C)c(=O)c(C)c5C)cc4OC)CC34CC4)cccc2C1C` (mixture of isomers) [Compound B117, (E/Z)-2-(5-((7-(2,6-dimethoxy-4-(1,4,5-trimethyl-6-oxo-1,6-dihydropyridin-3-yl)benzyl)-4,7-diazaspiro[2.5]octan-4-yl)methyl)-1-methyl-1,2,3,4-tetrahydroisoquinoline-2-carbonyl)-4,4-dimethylhex-2-enenitrile], the DC50 fell in the range of 1.25 to 10 nM and the greatest degradation seen (Dmax) was more than 75%.
